In patent US11566007B2, “Ras inhibitors” (Revolution Medicines, Inc., priority 2019, dated 2023):
Like-named read-outs stand apart in the source and are kept apart here.

What was measured:
KRAS G12V = KRAS G12V (Homo sapiens (Human), UniProt P01116+P62937, G12V); assay: Ras-Raf (BRAF RBD) disruption / FRET / MOA assay, KRAS G12V; assay type: biochemical; conditions: read-out: IC50* KRAS G12V FRET data
Experimental: (§1) The purpose of this biochemical assay is to measure the ability of test compounds to facilitate ternary complex formation between a nucleotide-loaded Ras isoform and cyclophilin A; the resulting ternary complex disrupts binding to a BRAF^RBD construct, inhibiting Ras signaling through a RAF effector.
(§2) Compound is present in plate wells as a 10-point 3-fold dilution series starting at a final concentration of 30 μM. After incubation at 25° C. for 3 hours, a mixture of Anti-His Eu-W1024 and anti-GST allophycocyanin is then added to assay sample wells at final concentrations of 10 nM and 50 nM, respectively, and the reaction incubated for an additional 1.5 hours. […] Compounds that facilitate disruption of a Ras:RAF complex are identified as those eliciting a decrease in the TR-FRET ratio relative to DMSO control wells.
(§3) This protocol may also be executed substituting other Ras proteins or nucleotides.
(§4) The purpose of this biochemical assay was to measure the ability of test compounds to facilitate ternary complex formation between a nucleotide-loaded K-Ras isoform and Cyclophilin A; the resulting ternary complex disrupts binding to a BRAF^RBD construct, inhibiting K-Ras signaling through a RAF effector. Data is reported as IC50 values.
as §2, with “Compound was” for “Compound is”, “allophycocyanin was” for “allophycocyanin is”, “a K-Ras:RAF” for “a Ras:RAF”, “complex were” for “complex are”

KRAS G12D = KRAS G12D (Homo sapiens (Human), UniProt P01116+P62937, G12D); assay: Ras-Raf (BRAF RBD) disruption / FRET / MOA assay, KRAS G12D; assay type: biochemical
KRAS G12D, sequence (P01116-2 other isoform, or with tags, fused parts or gaps G12D): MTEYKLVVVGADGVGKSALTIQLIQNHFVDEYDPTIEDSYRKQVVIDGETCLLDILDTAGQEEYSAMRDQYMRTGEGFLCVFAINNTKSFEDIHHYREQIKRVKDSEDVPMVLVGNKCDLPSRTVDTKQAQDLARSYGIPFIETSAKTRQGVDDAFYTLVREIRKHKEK
KRAS G12D, sequence (P62937 whole entry): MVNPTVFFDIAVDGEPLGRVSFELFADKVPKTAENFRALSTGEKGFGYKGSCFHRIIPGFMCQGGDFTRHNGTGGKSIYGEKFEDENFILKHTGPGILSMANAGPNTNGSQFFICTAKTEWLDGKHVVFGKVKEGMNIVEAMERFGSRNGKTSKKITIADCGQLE
Method in brief: (§5)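 TR-FRET read-out: a drop in ratio relative to DMSO wells marks disruption of the Ras:RAF complex, reported as IC50. Compounds (3-fold series, 10 points, top 30 μM final) incubated 3 h at 25° C before Eu-anti-His 10 nM and APC-anti-GST 50 nM, 1.5 h more.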

KRAS G12S = KRAS G12S (Homo sapiens (Human), UniProt P01116+P62937, G12S); assay: Ras-Raf (BRAF RBD) disruption / FRET / MOA assay, KRAS G12S; assay type: biochemical
KRAS G12S, sequence (P01116-2 other isoform, or with tags, fused parts or gaps G12S): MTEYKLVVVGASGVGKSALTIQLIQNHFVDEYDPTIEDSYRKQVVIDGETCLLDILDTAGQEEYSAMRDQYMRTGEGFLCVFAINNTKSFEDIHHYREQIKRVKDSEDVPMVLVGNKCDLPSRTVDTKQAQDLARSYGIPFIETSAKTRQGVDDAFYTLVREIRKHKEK
KRAS G12S, sequence (P62937 whole entry): as the sequence (P62937 whole entry) above
Method in brief: as §5

[1] = tested on: NCI-H358 cells (K-Ras G12C); assay: Potency assay: pERK in NCI-H358 cells; assay type: cell-based, human
Method in brief: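 pERK decrease read by AlphaLISA SureFire p-ERK1/2 or In-Cell Western after 4 h compound exposure at 37 °C, 5% CO2.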

NCI-H358 (K-Ras G12C) = assay: CellTiter-Glo cell viability assay, NCI-H358; assay type: cell-based, human; conditions: NCI-H358, 5-day treatment, class symbols, read-out: Additional H358 Cell Viability assay data (K-Ras G12C, IC50)
Method in brief: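 Cells seeded, compound added directly, 5-day exposure. Plates to RT ~30 min, CellTiter-Glo luminescence read. Normalized to DMSO avg (x100); 4-parameter logistic fit.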

K-Ras G13C = K-Ras G13C (Homo sapiens (Human), UniProt P01116+P62937, G13C); assay: Ras-Raf (BRAF RBD) disruption / FRET / MOA assay, KRAS G13C; assay type: biochemical; conditions: KRAS G13C; Ras-Raf disruption/FRET/MOA assay; read-out: IC50* KRAS G13C FRET data
K-Ras G13C, sequence (P01116-2 other isoform, or with tags, fused parts or gaps G13C): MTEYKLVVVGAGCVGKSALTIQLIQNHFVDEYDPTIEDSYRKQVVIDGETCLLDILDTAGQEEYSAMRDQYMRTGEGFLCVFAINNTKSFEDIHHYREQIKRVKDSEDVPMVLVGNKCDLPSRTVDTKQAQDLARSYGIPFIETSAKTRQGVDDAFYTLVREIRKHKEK
K-Ras G13C, sequence (P62937 whole entry): as the sequence (P62937 whole entry) above
Experimental: as §1, §2, §3, §4
as §2, with “Compound was” for “Compound is”, “allophycocyanin was” for “allophycocyanin is”, “a K-Ras:RAF” for “a Ras:RAF”, “complex were” for “complex are”

KRAS WT = KRAS WT (Homo sapiens (Human), UniProt P01116+P62937); assay: Ras-Raf (BRAF RBD) disruption / FRET / MOA assay, KRAS WT; assay type: biochemical; conditions: read-out: IC50* KRAS WT FRET data
KRAS WT, sequence (P01116-2 other isoform, or with tags, fused parts or gaps): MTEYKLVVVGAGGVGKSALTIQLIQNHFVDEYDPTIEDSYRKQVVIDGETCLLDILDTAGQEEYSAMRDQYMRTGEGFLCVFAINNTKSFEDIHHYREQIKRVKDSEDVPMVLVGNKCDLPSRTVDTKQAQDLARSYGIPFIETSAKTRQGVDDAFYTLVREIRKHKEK
KRAS WT, sequence (P62937 whole entry): as the sequence (P62937 whole entry) above
Experimental: as §1, §2, §3, §4
as §2, with “Compound was” for “Compound is”, “allophycocyanin was” for “allophycocyanin is”, “a K-Ras:RAF” for “a Ras:RAF”, “complex were” for “complex are”

K-Ras G12C = K-Ras G12C (Homo sapiens (Human), UniProt P01116+P62937, G12C); assay: Ras-Raf (BRAF RBD) disruption / FRET / MOA assay, KRAS G12C; assay type: biochemical; conditions: KRAS G12C; Ras-Raf disruption/FRET/MOA assay; read-out: IC50* KRAS G12C FRET data
K-Ras G12C, sequence (P01116-2 other isoform, or with tags, fused parts or gaps G12C): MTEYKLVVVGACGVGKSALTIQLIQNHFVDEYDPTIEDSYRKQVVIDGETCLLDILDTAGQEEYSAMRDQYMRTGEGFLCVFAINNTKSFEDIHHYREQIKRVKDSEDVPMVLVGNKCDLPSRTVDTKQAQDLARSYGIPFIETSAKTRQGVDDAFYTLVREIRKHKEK
K-Ras G12C, sequence (P62937 whole entry): as the sequence (P62937 whole entry) above
Experimental: as §1, §2, §3, §4
as §2, with “Compound was” for “Compound is”, “allophycocyanin was” for “allophycocyanin is”, “a K-Ras:RAF” for “a Ras:RAF”, “complex were” for “complex are”

[2] = Ras-Raf disruption/FRET/MOA assay; class symbols; read-out: KRAS G12D FRET data IC50
[3] = Ras-Raf disruption/FRET/MOA assay; class symbols; read-out: KRAS G12S FRET data IC50
[4] = Homo sapiens, NCI-H358, H358 KRAS G12C, read-out: pERK EC50

KRAS G12V, sequence (P01116-2 other isoform, or with tags, fused parts or gaps G12V): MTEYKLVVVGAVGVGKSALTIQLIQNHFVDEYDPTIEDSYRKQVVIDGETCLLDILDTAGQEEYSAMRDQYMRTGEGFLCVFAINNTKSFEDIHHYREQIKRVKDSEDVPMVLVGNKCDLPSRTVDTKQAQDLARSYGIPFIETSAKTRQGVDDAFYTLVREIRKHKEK
KRAS G12V, sequence (P62937 whole entry, canonical isoform): as the sequence (P62937 whole entry) above

SMILES: C=CC(=O)N1CCN(C(=O)N(C)[C@H](C(=O)N[C@H]2Cc3nc(cs3)-c3ccc4c(c3)c(c(-c3cccnc3[C@H](C)OC)n4CC(F)(F)F)CC(C)(C)COC(=O)[C@@H]3CCCN(N3)C2=O)C(C)C)CC1 (atropisomer, axis not shown) [Example A464]
- IC50 (KRAS G12V): 0.01 to 0.1 µM
- IC50 (KRAS G12D; read-out: KRAS G12D FRET data IC50; Ras-Raf disruption/FRET/MOA assay; class symbols): 0.01 to 0.1 µM
- IC50 (KRAS G12S; read-out: KRAS G12S FRET data IC50; Ras-Raf disruption/FRET/MOA assay; class symbols): 0.01 to 0.1 µM
- EC50 ([1]; Homo sapiens, NCI-H358, read-out: pERK EC50): < 5 µM

SMILES: C=CC(=O)N1CCC(F)(C(=O)N(C)[C@H](C(=O)N[C@H]2Cc3cccc(c3)-c3ccc4c(c3)c(c(-c3cccnc3[C@H](C)OC)n4CC)CC(C)(C)COC(=O)[C@@H]3CCCN(N3)C2=O)C(C)C)CC1 (atropisomer, axis not shown) [Example A519]
- IC50 (KRAS G12D; [2]): 1 to 10 µM
- IC50 (KRAS G12S; [3]): 0.1 to 1 µM
- EC50 ([1]; H358 KRAS G12C, read-out: pERK EC50): < 5 µM
- IC50 (NCI-H358 (K-Ras G12C)): < 0.01 µM

SMILES: CCn1c(-c2cccnc2COC)c2c3cc(ccc31)-c1cc(O)cc(c1)C[C@H](NC(=O)[C@H](C(C)C)N(C)C(=O)c1ccc(NC(=O)/C=C/CN(C)C)cn1)C(=O)N1CCC[C@H](N1)C(=O)OCC(C)(C)C2 [Example A067]
- IC50 (K-Ras G13C): 0.01 to 0.1 µM
- IC50 (KRAS G12V): 1 to 10 µM
- IC50 (KRAS WT): 1 to 10 µM
- IC50 (KRAS G12D; [2]): 1 to 10 µM
- IC50 (KRAS G12S; [3]): 1 to 10 µM
- IC50 (K-Ras G12C): 0.01 to 0.1 µM

SMILES: CCn1c(-c2cccnc2COC)c2c3cc(ccc31)-c1cc(O)cc(c1)C[C@H](NC(=O)[C@H](C(C)C)N(C)C(=O)C1CN(C(=O)/C=C/CN(C)C)C1)C(=O)N1CCC[C@H](N1)C(=O)OCC(C)(C)C2 [Example A071]
- IC50 (K-Ras G13C): 0.01 to 0.1 µM
- IC50 (KRAS G12V): 1 to 10 µM
- IC50 (KRAS WT): 1 to 10 µM
- IC50 (KRAS G12D; [2]): 1 to 10 µM
- IC50 (KRAS G12S; [3]): 1 to 10 µM
- IC50 (K-Ras G12C): 0.01 to 0.1 µM

SMILES: CCn1c(-c2cccnc2COC)c2c3cc(ccc31)-c1cc(O)cc(c1)C[C@H](NC(=O)[C@H](C(C)C)N(C)C(=O)[C@H]1CCN(C(=O)C#CCN3CCOCC3)C1)C(=O)N1CCC[C@H](N1)C(=O)OCC(C)(C)C2 [Example A95, (2S)-N-[(8S,14S)-22-ethyl-4-hydroxy-21-[2-(methoxymethyl)pyridin-3-yl]-18,18-dimethyl-9,15-dioxo-16-oxa-10,22,28-triazapentacyclo[18.5.2.1^2,^6.1^10,^14.0^23,^27]nonacosa-1(26),2,4,6(29),20,23(27),24-heptaen-8-yl]-3-methyl-2-{N-methyl-1-[(3S)-1-[4-(morpholin-4-yl)but-2-ynoyl]pyrrolidin-3-yl]formamido}butanamide]
- EC50 [1, 4]: < 5 µM
- IC50 (NCI-H358 (K-Ras G12C); Homo sapiens, NCI-H358, 120 h): 0.01 to 0.1 µM

SMILES: CCn1c(-c2cccnc2COC)c2c3cc(ccc31)-c1cc(O)cc(c1)C[C@H](NC(=O)[C@H](C(C)C)N(C)C(=O)[C@H]1CCN(C(=O)C#CCN(C)C)C1)C(=O)N1CCC[C@H](N1)C(=O)OCC(C)(C)C2 [Example A96]
- EC50 [1, 4]: < 5 µM
- IC50 (NCI-H358 (K-Ras G12C); Homo sapiens, NCI-H358, 120 h): < 0.01 µM

SMILES: CCn1c(-c2cccnc2COC)c2c3cc(ccc31)-c1cc(O)cc(c1)C[C@H](NC(=O)[C@H](C(C)C)N(C)C(=O)C1CN(C(=O)C#CCN(C)C)C1)C(=O)N1CCC[C@H](N1)C(=O)OCC(C)(C)C2 [Example A97]
- EC50 [1, 4]: < 5 µM
- IC50 (NCI-H358 (K-Ras G12C); Homo sapiens, NCI-H358, 120 h): 0.01 to 0.1 µM

SMILES: C=CC(=O)N1CC[C@H](C(=O)N(C)[C@H](C(=O)N[C@H]2Cc3cc(O)cc(c3)-c3ccc4c(c3)c(c(-c3ccc(C5CCN(C)CC5)nc3)n4CC)CC(C)(C)COC(=O)[C@@H]3CCCN(N3)C2=O)C(C)C)C1 [Example A98]
- EC50 [1, 4]: < 5 µM
- IC50 (NCI-H358 (K-Ras G12C); Homo sapiens, NCI-H358, 120 h): 0.01 to 0.1 µM

SMILES: C=CC(=O)N1CC[C@H](C(=O)N(C)[C@H](C(=O)N[C@H]2Cc3cc(O)cc(c3)-c3ccc4c(c3)c(c(-c3cnn(C)c3)n4CC)CC(C)(C)COC(=O)[C@@H]3CCCN(N3)C2=O)C(C)C)C1 [Example A99]
- EC50 [1, 4]: < 5 µM
- IC50 (NCI-H358 (K-Ras G12C); Homo sapiens, NCI-H358, 120 h): 0.01 to 0.1 µM
